In patent publication US11752120B2, “Use of succinic acid in increasing sensitivity of bacteria to antibiotics” (SUN YAT-SEN UNIVERSITY, priority 2018, dated 2023):
Where a name gives a salt, the structure may show the parent alone.

Assays:
E. coli K12 = assay: Minimum inhibitory concentration (MIC), NCCLS method, control strain; assay type: cell-based, Escherichia coli; conditions: no unit in table, MIC in μg/mL
Text: (§1) Escherichia coli (E. coli) are one of the most common bacteria in the clinic. 30 strains of E. coli obtained from the clinic were named YT1-30. The minimum inhibitory concentrations (MIC) of 8 antibiotics against these 30 clinically obtained E. coli was detected according to the NCCLS method, and E. coli K12 was used as a control.

[1] = test system: clinical Escherichia coli YT1-30; assay: Minimum inhibitory concentration (MIC), NCCLS method, 30 clinical strains; assay type: cell-based; set-up: Minimum inhibitory concentration (MIC): unit not given here
Text: as §1

Compound	Minimum inhibitory concentration (MIC) (E. coli K12)	Minimum inhibitory concentration (MIC) ([1]; strain YT1)	Minimum inhibitory concentration (MIC) ([1]; strain YT2)	Minimum inhibitory concentration (MIC) ([1]; strain YT3)	Minimum inhibitory concentration (MIC) ([1]; strain YT4)	Minimum inhibitory concentration (MIC) ([1]; strain YT5)	Minimum inhibitory concentration (MIC) ([1]; strain YT6)	Minimum inhibitory concentration (MIC) ([1]; strain YT7)	Minimum inhibitory concentration (MIC) ([1]; strain YT8)	Minimum inhibitory concentration (MIC) ([1]; strain YT9)	Minimum inhibitory concentration (MIC) ([1]; strain YT10)	Minimum inhibitory concentration (MIC) ([1]; strain YT11)	Minimum inhibitory concentration (MIC) ([1]; strain YT12)	Minimum inhibitory concentration (MIC) ([1]; strain YT13)	Minimum inhibitory concentration (MIC) ([1]; strain YT14)	Minimum inhibitory concentration (MIC) ([1]; strain YT15)	Minimum inhibitory concentration (MIC) ([1]; strain YT16)	Minimum inhibitory concentration (MIC) ([1]; strain YT17)	Minimum inhibitory concentration (MIC) ([1]; strain YT18)	Minimum inhibitory concentration (MIC) ([1]; strain YT19)	further results
CCC[C@@H]1C[C@@H](C(=O)N[C@@H]([C@H]2O[C@H](SC)[C@H](O)[C@@H](O)[C@H]2O)[C@H](C)Cl)N(C)C1 [Clindamycin hydrochloride]	24.414	390.625	390.625	390.625	1562.5	6250	1562.5	6250	6250	1562.5	6250	25000	25000	25000	25000	25000	25000	25000	390.625	390.625	Minimum inhibitory concentration (MIC) ([1]; strain YT20): 390.625; Minimum inhibitory concentration (MIC) ([1]; strain YT21): 390.625; Minimum inhibitory concentration (MIC) ([1]; strain YT22): 390.625; Minimum inhibitory concentration (MIC) ([1]; strain YT23): 390.625; Minimum inhibitory concentration (MIC) ([1]; strain YT24): 390.625; Minimum inhibitory concentration (MIC) ([1]; strain YT25): 390.625; Minimum inhibitory concentration (MIC) ([1]; strain YT26): 390.625; Minimum inhibitory concentration (MIC) ([1]; strain YT27): 390.625; Minimum inhibitory concentration (MIC) ([1]; strain YT28): 1562.5; Minimum inhibitory concentration (MIC) ([1]; strain YT29): 390.625; Minimum inhibitory concentration (MIC) ([1]; strain YT30): 390.625
CC[C@H]1OC(=O)[C@H](C)[C@@H](O[C@H]2C[C@@](C)(OC)[C@@H](O)[C@H](C)O2)[C@H](C)[C@@H](O[C@@H]2O[C@H](C)C[C@H](N(C)C)[C@H]2O)[C@](C)(O)C[C@@H](C)/C(=N\OCOCCOC)[C@H](C)[C@@H](O)[C@]1(C)O [Roxithromycin]	9.765	39.0625	625	625	156.25	625	625	625	625	625	625	625	625	625	2500	2500	625	625	625	625	Minimum inhibitory concentration (MIC) ([1]; strain YT20): 625; Minimum inhibitory concentration (MIC) ([1]; strain YT21): 625; Minimum inhibitory concentration (MIC) ([1]; strain YT22): 625; Minimum inhibitory concentration (MIC) ([1]; strain YT23): 625; Minimum inhibitory concentration (MIC) ([1]; strain YT24): 625; Minimum inhibitory concentration (MIC) ([1]; strain YT25): 625; Minimum inhibitory concentration (MIC) ([1]; strain YT26): 625; Minimum inhibitory concentration (MIC) ([1]; strain YT27): 625; Minimum inhibitory concentration (MIC) ([1]; strain YT28): 2500; Minimum inhibitory concentration (MIC) ([1]; strain YT29): 625; Minimum inhibitory concentration (MIC) ([1]; strain YT30): 156.25
CN(C)[C@@H]1C(O)=C(C(N)=O)C(=O)[C@@]2(O)C(O)=C3C(=O)c4c(O)cccc4[C@@](C)(O)[C@H]3C[C@@H]12 [Tetracycline]	1.526	6.1	24.414	97.656	390.625	390.625	97.656	97.656	97.656	97.656	97.656	97.656	6250	6250	6250	6250	6250	6250	1562.5	1562.5	Minimum inhibitory concentration (MIC) ([1]; strain YT20): 1562.5; Minimum inhibitory concentration (MIC) ([1]; strain YT21): 1562.5; Minimum inhibitory concentration (MIC) ([1]; strain YT22): 1562.5; Minimum inhibitory concentration (MIC) ([1]; strain YT23): 1562.5; Minimum inhibitory concentration (MIC) ([1]; strain YT24): 1562.5; Minimum inhibitory concentration (MIC) ([1]; strain YT25): 6.103; Minimum inhibitory concentration (MIC) ([1]; strain YT26): 97.656; Minimum inhibitory concentration (MIC) ([1]; strain YT27): 97.656; Minimum inhibitory concentration (MIC) ([1]; strain YT28): 390.625; Minimum inhibitory concentration (MIC) ([1]; strain YT29): 390.625; Minimum inhibitory concentration (MIC) ([1]; strain YT30): 390.625
